SMILES strings stand for the structures.

We go through two compounds from patent US7183061B2, “Method of expressing Heliothis ecdysone receptor fusion protein” (Syngenta Limited, priority 1996, dated 2007).

Assay [1] deals with glucocorticoid receptor transactivating and DNA binding domains fused to the ecdysone receptor hinge and ligand binding domains. The note with it: mammalian cells; cited from earlier work.
Assay [2] has as its target T1, chimeric ecdysone receptor and reporter gene cassette (pES1) (UniProt O18473+P04150).
T1 construct: expressed in transfected cells; host or cells: stably transformed tobacco plants (A9)
T1 sequence (P04150+O18473 with tags, fused parts or gaps): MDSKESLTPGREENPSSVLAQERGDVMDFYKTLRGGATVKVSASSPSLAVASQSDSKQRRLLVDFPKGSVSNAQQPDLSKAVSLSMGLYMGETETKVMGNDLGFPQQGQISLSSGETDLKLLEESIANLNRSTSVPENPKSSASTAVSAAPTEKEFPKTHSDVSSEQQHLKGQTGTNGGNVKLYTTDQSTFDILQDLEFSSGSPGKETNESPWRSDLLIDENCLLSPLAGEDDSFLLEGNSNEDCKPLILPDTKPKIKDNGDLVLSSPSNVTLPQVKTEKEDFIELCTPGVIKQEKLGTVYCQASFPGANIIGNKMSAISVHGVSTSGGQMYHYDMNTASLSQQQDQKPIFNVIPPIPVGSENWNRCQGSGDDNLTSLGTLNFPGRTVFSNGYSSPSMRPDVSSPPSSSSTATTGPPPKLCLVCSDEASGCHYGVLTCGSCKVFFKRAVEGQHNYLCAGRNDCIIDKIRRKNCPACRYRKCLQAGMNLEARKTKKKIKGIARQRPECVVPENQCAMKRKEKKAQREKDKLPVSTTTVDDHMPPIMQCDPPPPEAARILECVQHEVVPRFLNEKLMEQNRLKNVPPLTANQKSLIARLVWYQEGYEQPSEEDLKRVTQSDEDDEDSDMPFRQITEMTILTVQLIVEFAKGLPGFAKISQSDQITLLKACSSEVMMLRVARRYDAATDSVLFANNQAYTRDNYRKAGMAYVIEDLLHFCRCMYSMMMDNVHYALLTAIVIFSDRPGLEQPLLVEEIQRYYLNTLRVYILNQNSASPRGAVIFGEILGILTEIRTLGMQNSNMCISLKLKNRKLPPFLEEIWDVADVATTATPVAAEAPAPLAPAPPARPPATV
Put plainly: GUS activity in stably transformed tobacco plants (pES1). Format: in vivo, Heliothis virescens. An excerpt:
The methodology described below was used to produce four different stable Tobacco vectors. The method involves three steps: • 1. pbluescript SK HindIII/EcoRI vector was ligated to either GRE6-4635SCaMVGUSNOS HindIII/EcoRI (from p221.10GRE6) or GRE6-6035SCaMVGUSNOS HindIII/EcoRI (from p221.9GRE6) resulting in plasmid pSK-46 and pSK-60. • 2. This step involves the addition of the chimeric receptor (35SGRHEcRNOS or 35SGRVP16HEcRNOS) to pSK-60 or pSK-46. Thus a pSK-60 (or pSK-46) XbaI vector was ligated with either the 3.4 kb 35SGRHEcRNOS XbaI or the 3.0 kb 35SGRVP16HEcRNOS XbaI DNA fragment to produce pSKES1 (pSKGRE6-6035SCaMVGUSNOS-35SGRHEcRNOS), pSKES2 (pSKGRE6-4635 SCaMVGUSNOS-35 SGRHEcRNOS), pSKES3 (pSKGRE6-6035SCaMVGUSNOS-35SGRVP16HEcRNOS) and pSKES4 (pSKGRE6-4635SCaMVGUSNOS-35SGRVP16HEcRNOS). • 3. Transfer from pBluescript based vectors to binary vectors. The transfer of the ES1 (FIG. 29) ES2 (FIG. 30), ES3 (FIG. 31) or ES4 (FIG. 32) DNA fragments into the binary vector JR1 involves five steps: • (i) Restriction enzyme digestion of pSKES1 (ES2, ES3, and ES4) with ApaI and NotI to liberate the insert from the vector pBluescript. • (ii) The two DNA fragments were BamHI methylated for 2 hours at 37° C. in TRIS-HCl, MgCl, 80 μM SAM (S-adenosylmethionine) and 20 U of BamHI methylase. • (iii) Ligate an ApaI/NotI linker onto the fragment. The linker was designed to have an internal BamHI site: • ApaBNot1 5′ cattggatccttagc 3′ (SEQ ID NO: 46) and • ApaBNot2 5′ […] 3′ (SEQ ID NO: 47). • (iv) Restriction enzyme digest the protected and linkered fragment with BamHI and fractionate the products on a 1% (w/v) agarose gel. The protected DNA fragment (5.5 kb) was cut out of the gel and purified. • (v) A ligation of JRI BamHI vector with the protected band was carried out to produce JRIESI (JRIES2, JRIES3 or JRIES4). The DNA of the recombinant was characterised by restriction mapping and the sequence of the junctions determined. […]

As for `CC(C)CC[C@@H](O)[C@](C)(O)[C@H]1CC[C@@]2(O)C3=CC(=O)[C@]4(O)C[C@@H](O)[C@@H](O)C[C@]4(C)[C@H]3[C@H](O)C[C@]12C` [Muristerone A], in assay [1], the “activity of chimeric receptor as homodimer” value is “active”.
As to `CCc1ccc(C(=O)NN(C(=O)c2cc(C)cc(C)c2)C(C)(C)C)cc1` [RH5992, 3,5-dimethylbenzoic acid 1-1(1,1-dimethylethyl)-2(4-ethylbenzoyl)hydrazide], the GUS activity entry in assay [2] (5 mM foliar application, 8 week old glasshouse grown tobacco plants) is on record as “significantly elevated”; in assay [2] (seedlings grown hydroponically in the presence of inducer), “significantly elevated”; in assay [2] (transgenic tobacco treated in cell culture, 100 μM in MS media) it was “significantly elevated”.
